# US12134611B2, “Compounds and compositions for treating conditions associated with NLRP activity” (Novartis AG, priority 2018, dated 2024)
# Target: T1, hNLRP3 (Homo sapiens, UniProt Q96P20)
# T1 construct: THP-1 cells were purchased from the American Type Culture Collection; host or cells: THP-1 cells, PMA-differentiated, stimulated with gramicidin
# Assay: IL-1β production in PMA-differentiated THP-1 cells stimulated with gramicidin (hTHP-1 assay)
# Type: cell-based
# Settings: read-out: NLRP3 Antagonist, hNLRP3 (THP-1, IL-1b) Normalized: GeoMean IC50
# T1 sequence (Q96P20 whole entry): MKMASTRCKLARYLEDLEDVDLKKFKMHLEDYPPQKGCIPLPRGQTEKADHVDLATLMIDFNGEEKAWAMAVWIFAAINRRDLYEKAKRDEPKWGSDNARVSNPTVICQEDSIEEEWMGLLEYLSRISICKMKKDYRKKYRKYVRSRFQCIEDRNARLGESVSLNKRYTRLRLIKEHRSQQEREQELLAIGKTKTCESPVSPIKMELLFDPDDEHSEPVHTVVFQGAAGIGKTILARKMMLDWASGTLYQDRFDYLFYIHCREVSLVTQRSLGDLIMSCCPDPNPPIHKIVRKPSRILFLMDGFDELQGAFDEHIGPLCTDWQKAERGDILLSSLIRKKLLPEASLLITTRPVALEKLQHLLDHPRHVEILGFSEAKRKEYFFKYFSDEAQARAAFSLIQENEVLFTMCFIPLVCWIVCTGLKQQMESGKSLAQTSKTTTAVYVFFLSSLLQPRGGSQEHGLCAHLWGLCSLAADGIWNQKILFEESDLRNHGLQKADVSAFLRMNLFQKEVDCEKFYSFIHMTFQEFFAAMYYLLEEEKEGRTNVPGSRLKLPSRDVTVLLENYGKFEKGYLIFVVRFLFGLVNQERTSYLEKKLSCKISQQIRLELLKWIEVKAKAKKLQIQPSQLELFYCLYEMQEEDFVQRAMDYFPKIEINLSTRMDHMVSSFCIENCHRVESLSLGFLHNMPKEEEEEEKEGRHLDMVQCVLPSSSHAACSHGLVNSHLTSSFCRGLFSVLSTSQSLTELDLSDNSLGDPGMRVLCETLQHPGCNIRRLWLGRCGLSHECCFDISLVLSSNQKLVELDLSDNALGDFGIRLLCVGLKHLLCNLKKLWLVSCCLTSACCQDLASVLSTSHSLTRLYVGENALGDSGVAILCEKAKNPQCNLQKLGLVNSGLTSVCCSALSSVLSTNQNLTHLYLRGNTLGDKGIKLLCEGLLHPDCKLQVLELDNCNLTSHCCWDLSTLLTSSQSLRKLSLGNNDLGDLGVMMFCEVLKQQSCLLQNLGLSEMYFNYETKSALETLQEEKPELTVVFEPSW
row,Compound,IC50
1,"C=C(C)c1ccc2c(c1)S(=O)(=NC(=O)Nc1c3c(cc4c1CCC4)CCC3)NC2=O (stereo not shown) [Compound 207, 1-(1,2,3,5,6,7-hexahydro-s-indacen-4-yl)-3-(1-oxido-3-oxo-6-(prop-1-en-2-yl)-2,3-dihydro-1l4-benzo[d]isothiazol-1-ylidene)urea]",5 to 30 µM
2,"CC(O)(CO)c1ccc2c(c1)S(=O)(=NC(=O)Nc1c3c(cc4c1CCC4)CCC3)NC2=O (stereo not shown) [Compound 208, 1-(6-(1,2-dihydroxypropan-2-yl)-1-oxido-3-oxo-2,3-dihydro-1l4-benzo[d]isothiazol-1-ylidene)-3-(1,2,3,5,6,7-hexahydro-s-indacen-4-yl)urea]",0.04 to 0.2 µM
3,"COC(=O)Cc1ccc2c(c1)S(=O)(=NC(=O)Nc1c3c(cc4c1CCC4)CCC3)NC2=O (stereo not shown) [Compound 209, methyl 2-(1-(((1,2,3,5,6,7-hexahydro-s-indacen-4-yl)carbamoyl)imino)-1-oxido-3-oxo-2,3-dihydro-1H-1l4-benzo[d]isothiazol-6-yl)acetate]",5 to 30 µM
4,"O=C(N=S1(=O)NC(=O)c2ccc(-n3cccn3)cc21)Nc1c2c(cc3c1CCC3)CCC2 (stereo not shown) [Compound 211, 1-(1,2,3,5,6,7-hexahydro-s-indacen-4-yl)-3-(1-oxido-3-oxo-6-(1H-pyrazol-1-yl)-2,3-dihydro-1l4-benzo[d]isothiazol-1-ylidene)urea]",> 30 µM
5,"CNC(=O)c1ccc2c(c1)S(=O)(=NC(=O)Nc1c3c(cc4c1CCC4)CCC3)NC2=O (stereo not shown) [Compound 213, 1-(((1,2,3,5,6,7-hexahydro-s-indacen-4-yl)carbamoyl)imino)-N-methyl-3-oxo-2,3-dihydro-1H-1l4-benzo[d]isothiazole-6-carboxamide 1-oxide]",1 to 5 µM
6,"CN(C)C(=O)c1ccc2c(c1)S(=O)(=NC(=O)Nc1c3c(cc4c1CCC4)CCC3)NC2=O (stereo not shown) [Compound 214, 1-(((1,2,3,5,6,7-hexahydro-s-indacen-4-yl)carbamoyl)imino)-N,N-dimethyl-3-oxo-2,3-dihydro-1H-1l4-benzo[d]isothiazole-6-carboxamide 1-oxide]",5 to 30 µM
7,"O=C(N=S1(=O)NC(=O)c2ccc(CO)cc21)Nc1c2c(cc3c1CCC3)CCC2 (stereo not shown) [Compound 216, 1-(1,2,3,5,6,7-hexahydro-s-indacen-4-yl)-3-(6-(hydroxymethyl)-1-oxido-3-oxo-2,3-dihydro-1l4-benzo[d]isothiazol-1-ylidene)urea]",0.2 to 1 µM
8,"COCc1ccc2c(c1)S(=O)(=NC(=O)Nc1c3c(cc4c1CCC4)CCC3)NC2=O (stereo not shown) [Compound 217, 1-(1,2,3,5,6,7-hexahydro-s-indacen-4-yl)-3-(6-(methoxymethyl)-1-oxido-3-oxo-2,3-dihydro-1l4-benzo[d]isothiazol-1-ylidene)urea]",0.2 to 1 µM
9,"O=C(N=S1(=O)NC(=O)c2ccc(CNCC3CC3)cc21)Nc1c2c(cc3c1CCC3)CCC2 (stereo not shown) [Compound 218, 1-(6-(((cyclopropylmethyl)amino)methyl)-1-oxido-3-oxo-2,3-dihydro-1l4-benzo[d]isothiazol-1-ylidene)-3-(1,2,3,5,6,7-hexahydro-s-indacen-4-yl)urea]",0.2 to 1 µM
10,"O=C(N=S1(=O)NC(=O)c2cccnc21)Nc1c2c(cc3c1CCC3)CCC2 (stereo not shown) [Compound 223, 1-(1,2,3,5,6,7-hexahydro-s-indacen-4-yl)-3-(1-oxido-3-oxo-2,3-dihydro-1l4-isothiazolo[5,4-b]pyridin-1-ylidene)urea]",5 to 30 µM
11,"CC(C)(O)c1cc2c(s1)S(=O)(=NC(=O)Nc1c3c(cc4c1CCC4)CCC3)NC2=O (stereo not shown) [Compound 229, 1-(1,2,3,5,6,7-hexahydro-s-indacen-4-yl)-3-(5-(2-hydroxypropan-2-yl)-1-oxido-3-oxo-2,3-dihydro-1l4-thieno[3,2-d]isothiazol-1-ylidene)urea]",5 to 30 µM
12,"CC(C)(O)c1cccc(C2CC(=O)NS2(=O)=NC(=O)Nc2c3c(cc4c2CCC4)CCC3)c1 (stereo not shown) [Compound 253, 1-(1,2,3,5,6,7-hexahydro-s-indacen-4-yl)-3-(5-(3-(2-hydroxypropan-2-yl)phenyl)-1-oxido-3-oxo-1l6-isothiazolidin-1-ylidene)urea]",0.2 to 1 µM
13,"O=C(N=S1(=O)CCC(Cc2ccccc2)C(=O)N1)Nc1c2c(cc3c1CCC3)CCC2 (stereo not shown) [Compound 266, 1-(4-benzyl-1-oxido-3-oxo-1l6,2-thiazinan-1-ylidene)-3-(1,2,3,5,6,7-hexahydro-s-indacen-4-yl)urea]",5 to 30 µM
